Measured values from patent publication US7074758B2, “Two gonadotropin releasing hormones and a method to isolate the same” (Council of Scientific and Industrial Research, priority 2002, dated 2006).
Entries after “also recorded” stand apart in the source; their conditions may differ. Where two headings read alike, the source gives them in different places.

Key:
murrel pituitary cells = test: GtH release from murrel pituitary cell incubations, GtH measured by RIA; type: cell-based, Indian Murrel; conditions: for GtH released: Table 4, 2 μg GnRH fractions, mean ± SEM of five experiments, species of cells not given; for increase gonadotropin release: fold increase of gonadotropin release
Method: Meanwhile Jamaluddin et al, (Gen comp Endocrinology May 1989; 74(2): 190–8) of applicants laboratory developed a very dependable GnRH bioassay. Basic principle of this bioassay is to get the release of GTH from murrel primary pituitary cell culture and determine the amount of GTH released by GTH-RIA. […]
These three acetone fractions were extracted with petroleum ether (40–60° C.) to remove acetone, lipids and other hydrophobic substances. The final precipitates were centrifuged at 8,000 g for 15 min at 4° C. and the residues were stored at −80° C. until further use.

[1] = test system: Catla catla pituitary cells; test: gonadotropin release from carp pituitaries in response to murrel GnRH I and II; type: cell-based; conditions: 2 μg GnRH fractions
Text: (§1) Meanwhile Jamaluddin et al, (Gen comp Endocrinology May 1989; 74(2): 190–8) of applicants laboratory developed a very dependable GnRH bioassay. Basic principle of this bioassay is to get the release of GTH from murrel primary pituitary cell culture and determine the amount of GTH released by GTH-RIA. […] Moreover, these two GnRHs act almost equally in different species of carp indicating no species barrier (As shown below in Table 3).

[2] = test system: Cirrhinus mrigala pituitary cells; test: as above; type: cell-based; conditions: 2 μg GnRH fractions
Text: as §1

[3] = test system: Cyprinus carpio pituitary cells; test: as above; type: cell-based; conditions: 2 μg GnRH fractions

Row | Substance | GtH released (murrel pituitary cells) [ng/6 × 10^4 cells] | GnRH activity on the basis of GTH release from in vitro pituitary cell culture (murrel pituitary cells) | increase gonadotropin release (murrel pituitary cells) | GnRH activity on the basis of GTH release from in vitro pituitary cell culture (murrel pituitary cells; listed as QRP H) | GtH II released [1] [ng/6 × 10^4 cells] | GtH II released [2] [ng/6 × 10^4 cells] | GtH II released [3] [ng/6 × 10^4 cells] | GnRH activity on the basis of GTH release from in vitro pituitary cell culture (murrel pituitary cells; listed as SRP H)
1 | des-Gly^10,[D-Ala^6]-LHRH [GnRH superactive analogue, reference compound] | 68.0 ± 2.32 |  |  |  |  |  |  | 
2 | mammalian GnRH: mammalian gonadotropin releasing hormone decapeptide, comparator (QHWSYGLRPG; Gonadoliberin-1; UniProt P01148 24-33, looked up) [reference compound] | 49.9 ± 2.02 |  |  |  |  |  |  | 
3 | QHWSAWRLPG (channa punctatus) [muGnRH I] | 73.3 ± 2.2 | highly active | about 30 times | GnRH was found to be located | 74.5 ± 2.32 | 72.0 ± 2.13 | 73.8 ± 2.51 | 
4 | QHWSWGILPG (channa punctatus) [muGnRH II] | 79.2 ± 3.12 | more active gonadotropin releasing hormone than muGnRH I; also recorded: highly active; also recorded: slightly more active | about 35 times |  | 82.6 ± 3.02 | 80.1 ± 2.61 | 81.7 ± 3.12 | GnRH was found to be located
